Where two headings read alike, the source gives them in different places.
Target: T1, Akt1 (Homo sapiens, UniProt P31749, S473D)
T1 construct: The version of Akt used in these studies lacks the pleckstrin homology (PH) domain
Experiment: Akt1 kinase assay, fluorescence polarization (IMAP)
Format: biochemical
Method: The Akt1 kinase assay is based on the measurement of fluorescence polarization using IMAP technology (Molecular Devices Corporation #R8062). Two microliters of inhibitor compounds diluted to a concentration of 10 millimolar are added to column 2 of a polypropylene 96-well plate containing 98 microliters of 100% DMSO; the wells in columns 3-12 contain 60 microliters of 100% DMSO. The various test compounds are serially diluted 1:3 across the plate by pipetting 30 microliters of compounds into wells containing 60 microliters of 100% DMSO. Column 12 receives DMSO only and is used as a negative control for inhibition. The components of the wells are mixed and 15 microliters of each well are transferred to another 96-well plate already containing 60 microliters of reaction buffer (RB: 10 mM Tris-HCl, pH 7.5, 10 mM MgCl2, 0.1 mM EGTA, 0.01% Triton-X100 (Sigma #X-100), freshly added 1 mM DTT). After mixing, the […] reactions are assembled. First, five microliters of the above compound/reaction buffer mixture is transferred to the bottom of a 96-well black polystyrene reaction plate (Costar, #3694). Next, ten microliters of a solution containing 4 micromolar ATP and 40 nanomolar fluorescent-labeled Crosstide (Tamara-labeled […] peptide) are added. Then, 5 microliters (1.5 nanograms) of Akt protein in RB are added. The version of Akt used in these studies lacks the pleckstrin homology (PH) domain, and contains an aspartic acid residue in place of a serine residue in position 473 within the Akt1 hydrophobic motif. The Akt1 protein contains a polyhistidine tag at the amino terminus and is prephosphorylated on threonine at position 308 in order to activate latent kinase activity. Once the reaction components and inhibitors are assembled, the plates are gently tapped, covered with foil, and then incubated at ambient temperature for 30 minutes. IMAP beads (Molecular Devices) are then added (60 microliters of a 1:400 dilution of beads in RB). Plates are read on a Victor Plate Reader with the following settings: CW lamp filter: 544 nm, emission filter: 615 nm. Control values from wells lacking Akt protein are subtracted from the gross readings, and IC50 values are calculated using XLDA.

[1] = Table 1, concentration bins, read-out: Concentration Range at which exemplary compounds of formula I inhibit Akt kinase activity
[2] = Table 3, read-out: Avg Akt kinase, μM (50% inhibition)
[3] = average Akt kinase activity (IC50), read-out: Avg Akt kinase, μM (50% inhibition)

T1 sequence (P31749 118-480 S473D limits assumed, species assumed): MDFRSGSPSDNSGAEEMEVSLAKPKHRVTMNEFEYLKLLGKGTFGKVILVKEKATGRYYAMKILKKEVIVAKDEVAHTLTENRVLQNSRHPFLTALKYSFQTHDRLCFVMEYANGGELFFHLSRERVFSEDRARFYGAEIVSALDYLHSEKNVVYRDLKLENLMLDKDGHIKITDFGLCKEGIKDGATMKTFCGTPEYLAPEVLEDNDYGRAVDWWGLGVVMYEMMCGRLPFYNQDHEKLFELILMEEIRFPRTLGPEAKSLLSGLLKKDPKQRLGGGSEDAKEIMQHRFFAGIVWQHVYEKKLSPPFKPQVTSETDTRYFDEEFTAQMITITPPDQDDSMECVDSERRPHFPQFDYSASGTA

## COc1cc(NCC2(N)CCN(c3ncnc4[nH]cc(C)c34)C2)cc(C(F)(F)F)c1 (centres unmarked) [Example 30, 3-({[3-methoxy-5-(trifluoromethyl)phenyl]amino}-methyl)-1-(5-methyl-7H-pyrrolo[2,3-d]pyrimidin-4-yl)pyrrolidin-3-amine]
[1]
  IC50: 0.0101 to 0.1 µM
[2]
  IC50: 0.0135 µM

## Cc1c[nH]c2ncnc(N3CC[C@](N)(CNC(=O)c4c(F)cccc4F)C3)c12 [Example 126, N-{[(3S)-3-amino-1-(5-methyl-7H-pyrrolo[2,3-d]pyrimidin-4-yl)pyrrolidin-3-yl]methyl}-2,6-difluorobenzamide]
[1]
  IC50: 0.0101 to 0.1 µM
[3]
  IC50: 0.0199 µM

## CCc1c[nH]c2ncnc(N3CC[C@](N)(CNC(=O)c4ccc(Cl)cc4F)C3)c12 [Example 103, N-{[(3S)-3-amino-1-(5-ethyl-7H-pyrrolo[2,3-d]pyrimidin-4-yl)pyrrolidin-3-yl]methyl}-4-chloro-2-fluorobenzamide]
[1]
  IC50: 0.00251 to 0.01 µM
[3]
  IC50: 0.00487 µM

## Cc1c[nH]c2ncnc(N3CCC(N)(CNc4ccccc4Oc4ccccc4)C3)c12 (centres unmarked) [Example 20, 1-(5-methyl-7H-pyrrolo[2,3-d]pyrimidin-4-yl)-3-{[(2-phenoxyphenyl)amino]methyl}-pyrrolidin-3-amine]
[1]
  IC50: 0.0101 to 0.1 µM
[2]
  IC50: 0.0155 µM

## CCc1c[nH]c2ncnc(N3CC[C@@](N)(CNC(=O)c4cc(C)on4)C3)c12 [Example 91]
[1]
  IC50: 0.00251 to 0.01 µM
[3]
  IC50: 0.00392 µM

## N[C@]1(CNC(=O)c2ccc(F)cc2F)CCN(c2ncnc3[nH]cc(Cl)c23)C1 [Example 82, N-{[(3S)-3-amino-1-(5-chloro-7H-pyrrolo[2,3-d]pyrimidin-4-yl)pyrrolidin-3-yl]methyl}-2,4-difluorobenzamide]
[1]
  IC50: 0.00025 to 0.0025 µM
[3]
  IC50: 0.00163 µM

## Cc1c[nH]c2ncnc(N3CC[C@](N)(CNc4cccc(F)c4)C3)c12 [Example 37, (3S)-3-{[(3-fluorophenyl)amino]methyl}-1-(5-methyl-7H-pyrrolo[2,3-d]pyrimidin-4-yl)pyrrolidin-3-amine]
[1]
  IC50: 0.00251 to 0.01 µM
[2]
  IC50: 0.00329 µM

## Cc1c[nH]c2ncnc(N3CCC(N)(CNc4cc(C(F)(F)F)ccc4Oc4ccc(Cl)cc4)C3)c12 (centres unmarked) [Example 33, 3-({[2-(4-chlorophenoxy)-5-(trifluoromethyl)phenyl]amino}-methyl)-1-(5-methyl-7H-pyrrolo[2,3-d]pyrimidin-4-yl)pyrrolidin-3-amine]
[1]
  IC50: 0.00251 to 0.01 µM
[2]
  IC50: 0.00859 µM

## Cc1c[nH]c2ncnc(N3CC[C@](N)(CNC(=O)c4c(F)ccc(F)c4F)C3)c12 [Example 120, N-{[(3S)-3-amino-1-(5-methyl-7H-pyrrolo[2,3-d]pyrimidin-4-yl)pyrrolidin-3-yl]methyl}-2,3,6-trifluorobenzamide]
[1]
  IC50: 0.0101 to 0.1 µM
[3]
  IC50: 0.0255 µM

## Cc1c[nH]c2ncnc(N3CCC(N)(CNc4nccc(C(F)(F)F)n4)C3)c12 (centres unmarked) [Example 57, N-{[3-amino-1-(5-methyl-7H-pyrrolo[2,3-d]pyrimidin-4-yl)pyrrolidin-3-yl]methyl}-4-(trifluoromethyl)pyrimidin-2-amine]
[1]
  IC50: 0.0101 to 0.1 µM
[2]
  IC50: 0.0287 µM

## Cc1c[nH]c2ncnc(N3CC[C@](N)(CNC(=O)c4ccc(F)c(F)c4)C3)c12 [Example 114]
[1]
  IC50: 0.0101 to 0.1 µM
[3]
  IC50: 0.0176 µM

## Cc1c[nH]c2ncnc(N3CC[C@](N)(CNC(=O)c4ccc(Cl)cc4F)C3)c12 [Example 102, N-{[(3S)-3-amino-1-(5-methyl-7H-pyrrolo[2,3-d]pyrimidin-4-yl)pyrrolidin-3-yl]methyl}-4-chloro-2-fluorobenzamide]
[1]
  IC50: 0.0101 to 0.1 µM
[3]
  IC50: 0.014 µM

## N#Cc1c[nH]c2ncnc(N3CC[C@](N)(CNC(=O)c4ccc(Cl)cc4)C3)c12 [Example 86]
[1]
  IC50: 0.0101 to 0.1 µM
[3]
  IC50: 0.0175 µM

## N#Cc1c[nH]c2ncnc(N3CCC(N)(CNc4ccc5c(c4)CNCC5)C3)c12 (centres unmarked) [Example 39, 4-{3-amino-3-[(1,2,3,4-tetrahydroisoquinolin-7-ylamino)methyl]pyrrolidin-1-yl}-7H-pyrrolo[2,3-d]pyrimidine-5-carbonitrile]
[1]
  IC50: 0.101 to 10 µM
[2]
  IC50: 4.1 µM

## CCc1c[nH]c2ncnc(N3CC[C@](N)(CNC(=O)c4cccc(C)c4Cl)C3)c12 [Example 118]
[1]
  IC50: 0.0101 to 0.1 µM
[3]
  IC50: 0.0124 µM

## N[C@]1(CNC(=O)c2ccc(F)cc2)CCN(c2ncnc3[nH]cc(Cl)c23)C1 [Example 78, N-{[(3S)-3-amino-1-(5-chloro-7H-pyrrolo[2,3-d]pyrimidin-4-yl)pyrrolidin-3-yl]methyl}-4-fluorobenzamide]
[1]
  IC50: 0.00251 to 0.01 µM
[3]
  IC50: 0.00267 µM

## COCCN(CC1(N)CCN(c2ncnc3[nH]cc(C)c23)C1)C(=O)Nc1ccccc1 (centres unmarked) [Example 76, 1-{[3-amino-1-(5-methyl-7H-pyrrolo[2,3-d]pyrimidin-4-yl)pyrrolidin-3-yl]methyl}-1-(2-methoxyethyl)-3-phenylurea]
[1]
  IC50: 0.101 to 10 µM
[3]
  IC50: 0.523 µM

## CCc1c[nH]c2ncnc(N3CC[C@](N)(CNC(=O)c4ccccc4F)C3)c12 [Example 98, N-{[(3S)-3-amino-1-(5-ethyl-7H-pyrrolo[2,3-d]pyrimidin-4-yl)pyrrolidin-3-yl]methyl}-2-fluorobenzamide]
[1]
  IC50: 0.00025 to 0.0025 µM
[3]
  IC50: 0.000683 µM

## Cc1c[nH]c2ncnc(N3CCC(N)(CN(CCN(C)C)C(=O)Nc4ccccc4)C3)c12 (centres unmarked) [Example 195, 1-{[3-amino-1-(5-methyl-7H-pyrrolo[2,3-d]pyrimidin-4-yl)pyrrolidin-3-yl]methyl}-1-[2-(dimethylamino)ethyl]-3-phenylurea]
[1]
  IC50: 0.101 to 10 µM
read-out: Avg Akt kinase, μM (50% inhibition)
  IC50: 0.141 µM

## Cc1c[nH]c2ncnc(N3CC[C@](N)(CNC(=O)c4ccc(F)cc4Cl)C3)c12 [Example 100, N-{[(3S)-3-amino-1-(5-methyl-7H-pyrrolo[2,3-d]pyrimidin-4-yl)pyrrolidin-3-yl]methyl}-2-chloro-4-fluorobenzamide]
[1]
  IC50: 0.00251 to 0.01 µM
[3]
  IC50: 0.00972 µM

## N#Cc1c[nH]c2ncnc(N3CC[C@](N)(CNC(=O)c4ccc(Cl)cc4F)C3)c12 [Example 99, N-{[(3S)-3-amino-1-(5-cyano-7H-pyrrolo[2,3-d]pyrimidin-4-yl)pyrrolidin-3-yl]methyl}-4-chloro-2-fluorobenzamide]
[1]
  IC50: 0.0101 to 0.1 µM
[3]
  IC50: 0.0186 µM

## CCc1c[nH]c2ncnc(N3CC[C@](N)(CNC(=O)c4cccc(F)c4Cl)C3)c12 [Example 125, N-{[(3S)-3-amino-1-(5-ethyl-7H-pyrrolo[2,3-d]pyrimidin-4-yl)pyrrolidin-3-yl]methyl}-2-chloro-3-fluorobenzamide]
[1]
  IC50: 0.0101 to 0.1 µM
[3]
  IC50: 0.0139 µM

## Cc1c(F)cccc1NCC1(N)CCN(c2ncnc3[nH]cc(C)c23)C1 (centres unmarked) [Example 28, 3-{[(3-fluoro-2-methylphenyl)amino]methyl}-1-(5-methyl-7H-pyrrolo[2,3-d]pyrimidin-4-yl)pyrrolidin-3-amine]
[1]
  IC50: 0.00251 to 0.01 µM
[2]
  IC50: 0.00952 µM

## Cc1cccc(NC(=O)NCC2(N)CCN(c3ncnc4[nH]cc(C)c34)C2)c1C (centres unmarked) [Example 75, 1-{[3-amino-1-(5-methyl-7H-pyrrolo[2,3-d]pyrimidin-4-yl)pyrrolidin-3-yl]methyl}-3-(2,3-dimethylphenyl)urea]
[1]
  IC50: 0.101 to 10 µM
[3]
  IC50: 0.185 µM

## Cc1c[nH]c2ncnc(N3CCC(N)(CNc4ccc(F)cc4F)C3)c12 (centres unmarked) [Example 34, 3-{[(2,4-difluorophenyl)amino]methyl}-1-(5-methyl-7H-pyrrolo[2,3-d]pyrimidin-4-yl)pyrrolidin-3-amine]
[1]
  IC50: 0.00251 to 0.01 µM
[2]
  IC50: 0.00771 µM
